Measurements published in patent US7037673B2, “Dipeptide production method, L-amino acid amide hydrolase used therein, and production method of L-amino acid amide hydrolase” (Ajinomoto Co., Inc., priority 2001, dated 2006).
Residues, ends and D or L forms follow the SMILES beside them.

tested on: not given; assay: not given; conditions: compared with L-glutamine; cited from earlier work

| Compound | stability | water-solubility |
| --- | --- | --- |
| C[C@H](N)C(=O)N[C@@H](CCC(N)=O)C(=O)O [L-alanyl-L-glutamine] (H-Ala-Gln-OH) | higher | higher |

tested on: L-alanine amide hydrolase; assay: Production of L-alanyl-L-asparagine and L-alanyl-L-glutamine with purified enzyme; assay type: biochemical, Corynebacterium glutamicum strain ATCC 13286; conditions: 50 μmol L-alanine amide hydrochloride + 150 μmol L-asparagine or L-glutamine, 0.08 unit enzyme, 1 ml, pH 9.0, 30° C., 10 hours
From the text: Hereinafter, the present invention will be explained in more detail by way of examples. However, the present invention should not be considered to be limited to these examples.
The L-alanine amide hydrolase uniformly purified in Example 2 was allowed to act on L-alanine amide hydrochloride and L-asparagine or L-alanine amide hydrochloride and L-glutamine to produce L-alanyl-L-asparagine or L-alanyl-L-glutamine. In the case of obtaining L-alanyl-L-asparagine, 200 μmol of Tris-HCl buffer (pH 9.0), 50 μmol or L-alanine amide hydrochloride, 150 μmol of L-asparagine and enzyme liquid containing 0.08 unit of L-alanine amide hydrolase were added and mixed to a final volume of 1 ml. In the case of obtaining L-alanyl-L-glutamine, the reactants were mixed under the same conditions as in the case of L-alanyl-L-asparagine with the exception of using 150 μmol of L-glutamine instead of 150 μmol of L-asparagine. Control experiments were established for the case of using one of the substrates or setting the lot in which enzyme was not added. The reaction was carried out at a reaction temperature of 30° C. for 10 hours, and the results of quantifying the target product are shown in Table 3.

| Compound | Product concentration [mM] |
| --- | --- |
| C[C@H](N)C(=O)N[C@@H](CCC(N)=O)C(=O)O [L-alanyl-L-glutamine] (H-Ala-Gln-OH) | 7.7 |
| C[C@H](N)C(=O)N[C@@H](CC(N)=O)C(=O)O [L-alanyl-L-asparagine] (H-Ala-Asn-OH) | 8.4 |

tested on: His-Tag L-alanine amide hydrolase; assay: Study of substrate specificity using His-Tag purified enzyme; assay type: biochemical, Corynebacterium glutamicum strain ATCC 13286; conditions: 100 mM L-alanine amide, 150 mM test amino acid, pH 9.0, enzyme 0.0045 U/ml, 25° C., 3 hours

| Compound | peptide synthesized from L-alanine amide and test amino acid [mM] |
| --- | --- |
| C[C@H](N)C(=O)N[C@@H](CCC(=O)O)C(=O)O [L-alanyl-L-glutamate] (H-Ala-Glu-OH) | 1.20 |
| C[C@H](N)C(=O)N[C@@H](CCCCN)C(=O)O [L-alanyl-L-lysine] (H-Ala-Lys-OH) | 18.83 |
| C[C@H](N)C(=O)N[C@@H](Cc1c[nH]cn1)C(=O)O [L-alanyl-L-histidine] (H-Ala-His-OH) | 12.52 |
| C[C@H](N)C(=O)NCC(=O)O [L-alanyl-glycine] (H-Ala-Gly-OH) | 7.54 |
| CC(C)C[C@H](NC(=O)[C@H](C)N)C(=O)O [L-alanyl-L-leucine] (H-Ala-Leu-OH) | 9.60 |
| CSCC[C@H](NC(=O)[C@H](C)N)C(=O)O [L-alanyl-L-methionine] (H-Ala-Met-OH) | 14.49 |
| C[C@H](N)C(=O)N[C@@H](Cc1ccccc1)C(=O)O [L-alanyl-L-phenylalanine] | 13.42 |
| C[C@H](N)C(=O)N[C@@H](CO)C(=O)O [L-alanyl-L-serine] (H-Ala-Ser-OH) | 24.67 |
| CC[C@H](C)[C@H](NC(=O)[C@H](C)N)C(=O)O [L-alanyl-L-isoleucine] (H-Ala-Ile-OH) | 14.11 |
| C[C@H](N)C(=O)N[C@@H](Cc1c[nH]c2ccccc12)C(=O)O [L-alanyl-L-tryptophan] (H-Ala-Trp-OH) | 10.09 |
| C[C@H](N)C(=O)N[C@@H](Cc1ccc(O)cc1)C(=O)O [L-alanyl-L-tyrosine] (H-Ala-Tyr-OH) | 1.52 |
| C[C@H](N)C(=O)N[C@@H](C)C(=O)O [L-alanyl-L-alanine] (H-Ala-Ala-OH) | 10.11 |
| C[C@H](N)C(=O)N[C@@H](CCCNC(=N)N)C(=O)O [L-alanyl-L-arginine] (H-Ala-Arg-OH) | 27.69 |
| C[C@H](N)C(=O)N1CCC[C@H]1C(=O)O [L-alanyl-L-proline] (H-Ala-Pro-OH) | 0.81 |
| C[C@H](N)C(=O)N[C@H](C(=O)O)[C@@H](C)O [L-alanyl-L-threonine] (H-Ala-Thr-OH) | 20.76 |
| CC(C)[C@H](NC(=O)[C@H](C)N)C(=O)O [L-alanyl-L-valine] (H-Ala-Val-OH) | 9.72 |

same assay, conditions: 100 mM test amino acid amide, 150 mM L-glutamine, pH 9.0, enzyme 0.0045 U/ml, 25° C., 3 hours

| peptide produced from test amino acid amide and L-glutamine [mM] | Compound |
| --- | --- |
| 21.2 | NC(=O)CC[C@H](NC(=O)[C@@H](N)CC(=O)O)C(=O)O [α-L-aspartyl-glutamine] (H-Asp-Gln-OH) |
| 17.7 | NCC(=O)N[C@@H](CCC(N)=O)C(=O)O [glycyl-L-glutamine] (H-Gly-Gln-OH) |

tested on: L-alanine amide hydrolase; assay: Measurement of activity of L-alanine amide hydrolase (L-alanyl-L-glutamine formation, HPLC); assay type: biochemical, Corynebacterium glutamicum strain ATCC 13286; conditions: His-Tag purified enzyme
Protocol: Measurement of L-alanine amide enzyme activity was carried out by incubating a reaction mixture containing 50 mM L-alanine amide, 150 mM L-glutamine, 100 mM Tris-HCl buffer (pH 9.0), 10 mM EDTA and enzyme solution at 30° C. for 60 minutes followed by stopping the reaction by adding aqueous phosphoric acid (pH 1.5) equal to four volumes of the reaction mixture. The amount of L-alanyl-L-glutamine was determined by HPLC. For the unit of enzyme activity, enzyme activity that produces 1 μmol of L-alanyl-L-glutamine in 1 minute under these conditions was defined as 1 unit (U).
The conditions of HPLC used for analysis were as indicated below.
Mobile phase: (aqueous phosphoric acid solution (pH 2.1)), 2.5 mM sodium-1-octanesulfonate/methanol=10/1
Column temperature: 40° C.

| Compound | production yield of Ala-Gln relative to L-alanine amide [%] |
| --- | --- |
| C[C@H](N)C(=O)N[C@@H](CCC(N)=O)C(=O)O [L-alanyl-L-glutamine] (H-Ala-Gln-OH) | 7.2 |
